Values joined by “and” are separate entries in the source; they are usually repeats but may differ in a detail not shown here. Equal entries are not always repeated.
Experiment: heat capacity at constant pressure per volume; xn = mol fraction of the nth substance listed
Details: 101 kPa, Liquid, DSC, x2 = 0.695

CCCCCCCCCCCCCCCCC [heptadecane] + N#Cc1ccccc1
Details	heat capacity
298.05 K	1856100 J/K/m3
298.14 K	1849900 J/K/m3
298.24 K	1857600 J/K/m3
298.34 K	1869500 J/K/m3
298.44 K	1867300 J/K/m3 and 1868100 J/K/m3
298.54 K	1868700 J/K/m3
298.63 K	1857900 J/K/m3
298.73 K	1860800 J/K/m3
298.83 K	1865800 J/K/m3
298.93 K	1874400 J/K/m3
299.02 K	1881300 J/K/m3
299.12 K	1876400 J/K/m3
299.22 K	1870300 J/K/m3
299.32 K	1856400 J/K/m3 and 1858200 J/K/m3
299.42 K	1872800 J/K/m3
299.52 K	1876300 J/K/m3
299.61 K	1873800 J/K/m3
299.71 K	1875400 J/K/m3
299.81 K	1870400 J/K/m3
299.91 K	1865300 J/K/m3
300 K	1870300 J/K/m3
300.1 K	1879700 J/K/m3
300.2 K	1876100 J/K/m3
300.3 K	1884400 J/K/m3
300.4 K	1880100 J/K/m3
300.49 K	1877500 J/K/m3
300.59 K	1873500 J/K/m3
300.69 K	1871300 J/K/m3
300.79 K	1885700 J/K/m3 and 1882900 J/K/m3
300.89 K	1883300 J/K/m3
300.98 K	1885200 J/K/m3
301.08 K	1880800 J/K/m3
301.18 K	1881200 J/K/m3
301.28 K	1861100 J/K/m3
301.37 K	1877300 J/K/m3
301.47 K	1892900 J/K/m3
301.57 K	1896800 J/K/m3
301.67 K	1885900 J/K/m3 and 1887800 J/K/m3
301.77 K	1883300 J/K/m3
301.87 K	1884700 J/K/m3
301.96 K	1888400 J/K/m3
302.06 K	1899800 J/K/m3
302.16 K	1898500 J/K/m3
302.26 K	1888500 J/K/m3
302.35 K	1894400 J/K/m3
302.45 K	1890300 J/K/m3
302.55 K	1891200 J/K/m3
302.65 K	1899800 J/K/m3 and 1900100 J/K/m3
302.75 K	1891400 J/K/m3
302.85 K	1889600 J/K/m3
302.95 K	1885100 J/K/m3
303.15 K	1906400 J/K/m3
303.35 K	1896200 J/K/m3
303.45 K	1894500 J/K/m3
303.55 K	1902400 J/K/m3
303.65 K	1898100 J/K/m3
303.75 K	1898100 J/K/m3
303.85 K	1893900 J/K/m3
304.05 K	1908600 J/K/m3
304.15 K	1904800 J/K/m3
304.25 K	1897700 J/K/m3 and 1899000 J/K/m3
304.35 K	1888500 J/K/m3 and 1889600 J/K/m3
304.45 K	1900600 J/K/m3
304.55 K	1901500 J/K/m3
304.65 K	1903900 J/K/m3
304.75 K	1894400 J/K/m3
304.85 K	1881800 J/K/m3
304.95 K	1915800 J/K/m3
305.05 K	1912200 J/K/m3
305.15 K	1901900 J/K/m3
305.25 K	1924700 J/K/m3
305.35 K	1907800 J/K/m3
305.45 K	1925500 J/K/m3
305.55 K	1943100 J/K/m3
305.65 K	1963900 J/K/m3
305.75 K	1942400 J/K/m3
305.85 K	1924200 J/K/m3
305.95 K	1983400 J/K/m3
306.05 K	1910400 J/K/m3
306.15 K	2011200 J/K/m3
306.25 K	1898300 J/K/m3
306.35 K	2003200 J/K/m3
306.45 K	1935800 J/K/m3
306.55 K	2021100 J/K/m3
306.65 K	1945600 J/K/m3
306.75 K	2006800 J/K/m3
306.85 K	1978000 J/K/m3
307.05 K	2038400 J/K/m3
307.15 K	2126900 J/K/m3
307.25 K	1846500 J/K/m3
307.35 K	1804900 J/K/m3
307.45 K	1791700 J/K/m3
307.55 K	1787300 J/K/m3
307.65 K	1779800 J/K/m3
307.75 K	1775700 J/K/m3
307.85 K	1767300 J/K/m3
307.95 K	1764000 J/K/m3
308.05 K	1758800 J/K/m3
308.15 K	1759200 J/K/m3
308.23 K	1750200 J/K/m3
308.35 K	1756500 J/K/m3
308.45 K	1756400 J/K/m3
308.55 K	1753500 J/K/m3
308.65 K	1748300 J/K/m3
308.75 K	1746500 J/K/m3
308.85 K	1745200 J/K/m3
308.95 K	1748100 J/K/m3
309.05 K	1747000 J/K/m3
309.14 K	1747900 J/K/m3
309.25 K	1743700 J/K/m3
309.35 K	1742200 J/K/m3
309.45 K	1738100 J/K/m3
309.55 K	1735200 J/K/m3
309.65 K	1738100 J/K/m3
309.75 K	1736500 J/K/m3
309.85 K	1737600 J/K/m3
309.95 K	1740400 J/K/m3
310.05 K	1736900 J/K/m3
310.15 K	1731900 J/K/m3
310.25 K	1735000 J/K/m3
310.35 K	1732200 J/K/m3
310.45 K	1727800 J/K/m3
310.55 K	1733700 J/K/m3
310.65 K	1733500 J/K/m3
310.75 K	1728600 J/K/m3
310.85 K	1733600 J/K/m3
310.95 K	1730900 J/K/m3
311 K	1732600 J/K/m3
311.1 K	1732200 J/K/m3
311.2 K	1728000 J/K/m3
311.3 K	1725400 J/K/m3
311.4 K	1724600 J/K/m3
311.5 K	1725800 J/K/m3
311.6 K	1729500 J/K/m3
311.7 K	1732300 J/K/m3
311.8 K	1728700 J/K/m3
311.9 K	1728100 J/K/m3
312 K	1725500 J/K/m3
312.1 K	1723400 J/K/m3
312.2 K	1722200 J/K/m3
312.3 K	1721300 J/K/m3
312.4 K	1724000 J/K/m3
312.5 K	1727600 J/K/m3
312.6 K	1725700 J/K/m3
312.7 K	1727300 J/K/m3
312.8 K	1722600 J/K/m3
312.9 K	1722100 J/K/m3
313 K	1720300 J/K/m3
313.1 K	1719600 J/K/m3
313.2 K	1723400 J/K/m3
313.3 K	1724400 J/K/m3
313.4 K	1725500 J/K/m3
313.5 K	1720500 J/K/m3
313.6 K	1717000 J/K/m3
313.7 K	1718300 J/K/m3
313.8 K	1719300 J/K/m3
313.9 K	1720600 J/K/m3
314 K	1725600 J/K/m3
314.1 K	1722200 J/K/m3
314.2 K	1723200 J/K/m3
314.3 K	1718000 J/K/m3
314.4 K	1717600 J/K/m3
314.5 K	1721100 J/K/m3
314.6 K	1727600 J/K/m3
314.7 K	1722500 J/K/m3
314.8 K	1716700 J/K/m3
314.9 K	1717900 J/K/m3
315 K	1715800 J/K/m3
315.1 K	1719700 J/K/m3
315.2 K	1722400 J/K/m3
315.3 K	1721800 J/K/m3
315.4 K	1717200 J/K/m3
315.5 K	1714900 J/K/m3
315.6 K	1718500 J/K/m3
315.7 K	1724700 J/K/m3
315.8 K	1719600 J/K/m3
315.9 K	1715500 J/K/m3
316 K	1715800 J/K/m3
316.1 K	1715600 J/K/m3
316.2 K	1721400 J/K/m3
316.3 K	1718600 J/K/m3
316.4 K	1718400 J/K/m3
316.5 K	1717700 J/K/m3
316.6 K	1724000 J/K/m3
316.7 K	1724400 J/K/m3
316.8 K	1719200 J/K/m3
317.16 K	1722200 J/K/m3
317.2 K	1722100 J/K/m3
317.31 K	1721500 J/K/m3
317.4 K	1721700 J/K/m3
317.5 K	1722100 J/K/m3
317.6 K	1721900 J/K/m3
317.7 K	1721900 J/K/m3
317.8 K	1721800 J/K/m3
317.9 K	1721500 J/K/m3
318 K	1721300 J/K/m3
318.1 K	1721300 J/K/m3
318.2 K	1721200 J/K/m3
318.3 K	1721100 J/K/m3
318.41 K	1721000 J/K/m3
318.5 K	1721100 J/K/m3
318.6 K	1721300 J/K/m3
318.7 K	1721400 J/K/m3
318.8 K	1721400 J/K/m3
318.9 K	1721100 J/K/m3

— the NIST ThermoML archive (doi:10.1016/j.jct.2012.12.001)
